Like-named read-outs stand apart in the source and are kept apart here. Marks after values point to notes of the source that are not given here.
What was measured:
CYP3A4 = system: CYP3A4; parameters: method as in Takeda data on file; conditions: ref Takeda data on file; cited from earlier work
[1] = cited from earlier work
[2] = cited from earlier work; remark: listed apart in the source
[3] = Study 2: single-dose plasma pharmacokinetics of alisertib, M1 and M2 with and without itraconazole; conditions: for t1/2 / Tmax / half-life: single 30 mg alisertib ECT; for t1/2 / half-life: arithmetic mean (SD); for Tmax: median (minimum, maximum); for half-life: t1/2, Study 2
Description: (§1) Study 2 was a phase 1, open-label study in patients with advanced solid tumors or relapsed/refractory lymphomas.
(§2) Patients also received oral solution doses of 200 mg itraconazole QD on Days 5 through 13. […] Itraconazole was administered in the study center on Days 5, and 10 through 13 with the remaining doses being administered at home by the patients.
(§3) [1, 2] […] The quantitation range for the M1 assay was 2.00 to 1000 ng/mL, the assay precision ranged from 3.0 to 4.1% and the mean accuracy ranged from −1.5 to 0.3%. The quantitation range for the M2 assay was 2.00 to 1000 ng/mL, the assay precision ranged from 3.0 to 4.3% and the mean accuracy ranged from −1.1 to 0.7%.
(§4) Pharmacokinetic parameters were estimated where data permitted using non-compartmental analysis with Phoenix™ WinNonlin® Version 6.3 (Pharsight Corporation, Mountain View, CA, USA). […] The AUC parameters were estimated using the linear-log trapezoidal rule.
(§5) The analyses utilized a fixed-sequence repeated measures mixed-effects linear model. All inferences were based on least squares (LS) means estimated from this model. All statistical analyses were conducted using SAS version 9.2 (SAS Institute, NC, USA).

[4] = Study 1: single-dose plasma pharmacokinetics of alisertib, M1 and M2 with and without esomeprazole or rifampin; conditions: for t1/2 / half-life: arithmetic mean (SD); for AUC(0-inf): AUC0-inf; for AUC(0-t): AUC0-last
Description: (§6) Study 1 was a phase 1, open-label, fixed sequence, 2-cycle study in patients with advanced solid tumors or lymphomas.
(§7) In Cycle 2, patients also received single daily doses of either esomeprazole (40 mg QD delayed-release capsules) or rifampin (600 mg once daily [QD]) on Days 1 through 10.
(§8) Patients attended the study center on the day prior to the first dose (Day −1) for baseline assessments and returned on each of Days 1 to 4 of Cycle 1 and Days 8 to 11 of Cycle 2 for study assessments.
(§9) The quantitation range for the M1 assay was 2.00 to 1000 ng/mL, the assay precision ranged from 3.0 to 4.1% and the mean accuracy ranged from −1.5 to 0.3%. The quantitation range for the M2 assay was 2.00 to 1000 ng/mL, the assay precision ranged from 3.0 to 4.3% and the mean accuracy ranged from −1.1 to 0.7%. The same assays were used in Study 2, with similar values for assay precision and accuracy.
as §4
(§10) The analyses utilized a fixed-sequence repeated measures mixed-effects linear model. All inferences were based on least squares (LS) means estimated from this model. All statistical analyses were conducted using SAS version 9.2 (SAS Institute, NC, USA). The sample size for both studies was based on the expected 90% CIs for the ratio of geometric mean AUCs. For Study 1, the within-patient CV was estimated to be 39.4% based on prior clinical PK data in cancer patients. […] For Study 2, the within-patient CV was estimated to be 31% based on more recent clinical PK data and a sample size of 16 patients was expected to provide 90% CIs of 0.83X, 1.21X.

[5] = Study 2 safety assessment (adverse events, laboratory results, vital signs, ECG); type: in vivo, human
Description: as §1, §2

[6] = Study 1 safety assessment (adverse events, laboratory results, vital signs, ECG); type: in vivo, human
Description: Safety was evaluated based on the incidence of adverse events, and changes from baseline in vital signs, ECGs, weight and clinical laboratory results and ECOG status.

[7] = in vivo; for AUC0-last / AUC(0-inf) / Cmax / Tmax / t1/2: human, 30 mg
Description: as §1, §2, §3, §4, §5

[8] = human, in vivo; for mean t1/2 / median Tmax: 50 mg
Description: as §6, §7, §8, §9, §4, §10

[9] = Study 2, absence of itraconazole
[10] = human, plasma, oral, 50 mg, Study 1 esomeprazole arm, single 50 mg alisertib ECT, absence of esomeprazole, geometric mean (%CV)
[11] = human, plasma, oral, 50 mg, Study 1 rifampin arm, single 50 mg alisertib ECT, absence of rifampin, geometric mean (%CV)
[12] = human, plasma, oral, Study 1 esomeprazole arm, single 50 mg alisertib ECT, presence of esomeprazole 40 mg QD, geometric mean (%CV)
[13] = human, plasma, oral, Study 1 rifampin arm, single 50 mg alisertib ECT, presence of rifampin 600 mg QD, geometric mean (%CV)

**Q.** For `COc1cc(Nc2ncc3c(n2)-c2ccc(Cl)cc2C(c2c(F)cccc2OC)=NC3)ccc1C(=O)O` [Alisertib], which “CYP3A4-mediated metabolism as share of alisertib total clearance (estimated)” value (CYP3A4) is on record?
**A.** approximately 60%

**Q.** What about the aqueous solubility ([1]; at acidic pH) of the same compound?
**A.** low

**Q.** And the pKa ([1]; free acid)?
**A.** 4.53

**Q.** And the apparent oral clearance [2]?
**A.** 4.25 L/h

**Q.** And the t1/2 [3, 9]?
**A.** 22.6 (10.3)^k h

**Q.** And the Tmax [3, 9]?
**A.** 2.9 (1.1, 10) h

**Q.** What about the t1/2 ([3]; Study 2, presence of itraconazole 200 mg QD) of the same compound?
**A.** 25.4 (9.2)^l h

**Q.** And the “change in Cmax in the presence of itraconazole” value ([3]; Study 2, single 30 mg alisertib, itraconazole 200 mg QD versus alone)?
**A.** did not alter

**Q.** What about the AUC(0-inf) ([3]; human, plasma, oral, 30 mg) of the same compound?
**A.** 14.8 µM·h

**Q.** What about the AUC(0-t) ([3]; human, plasma, oral, 30 mg) of the same compound?
**A.** 13.5 µM·h

**Q.** And the Cmax ([3]; human, plasma, oral, 30 mg)?
**A.** 986 nM

**Q.** What about the Tmax ([3]; human, plasma, oral, 30 mg, Tmax, Study 2, absence of itraconazole) of the same compound?
**A.** ~3 h

**Q.** And the half-life ([3]; human, plasma, oral, 30 mg, absence of itraconazole)?
**A.** ~23 h

**Q.** What about the Tmax ([3]; human, plasma, oral, Tmax, Study 2, presence of itraconazole 200 mg QD) of the same compound?
**A.** 2.9 h

**Q.** What about the half-life ([3]; human, plasma, oral, presence of itraconazole 200 mg QD) of the same compound?
**A.** ~25 h

**Q.** What about the “increase in alisertib AUCinf (systemic exposure) by esomeprazole” value ([4]; Study 1, single 50 mg alisertib, esomeprazole 40 mg QD) of the same compound?
**A.** 28%

**Q.** And the “decrease in alisertib AUCinf (AUC) by rifampin” value ([4]; Study 1, single 50 mg alisertib, rifampin 600 mg QD)?
**A.** approximately 50%

**Q.** What about the “change in Cmax in the presence of rifampin” value ([4]; Study 1, single 50 mg alisertib, rifampin 600 mg QD versus alone, metabolites not statistically compared) of the same compound?
**A.** did not alter

**Q.** And the t1/2 ([4]; Study 1 esomeprazole arm, single 50 mg alisertib ECT, absence of esomeprazole)?
**A.** 16.1 (5.4)^b h

**Q.** What about the Tmax ([4]; Study 1 esomeprazole arm, single 50 mg alisertib ECT, presence of esomeprazole 40 mg QD, median (minimum, maximum)) of the same compound?
**A.** 3 (1, 8) h

**Q.** What about the t1/2 ([4]; Study 1 rifampin arm, single 50 mg alisertib ECT, absence of rifampin) of the same compound?
**A.** 16.3 (6.6)^h

**Q.** What about the AUC0-last ([4]; Study 1 rifampin arm, single 50 mg alisertib ECT, absence of rifampin, plasma, geometric mean (%CV)) of the same compound?
**A.** 17,936 (43%) nM*h

**Q.** What about the t1/2 ([4]; Study 1 rifampin arm, single 50 mg alisertib ECT, presence of rifampin 600 mg QD) of the same compound?
**A.** 8.2 (5.5)^i h

**Q.** What about the Tmax ([4]; Study 1 rifampin arm, single 50 mg alisertib ECT, presence of rifampin 600 mg QD, median (minimum, maximum)) of the same compound?
**A.** 2.1 (1, 6) h

**Q.** And the AUC(0-inf) [4, 10]?
**A.** 20.3 µM·h

**Q.** What about the AUC(0-inf) [4, 11] of the same compound?
**A.** 16.2 µM·h

**Q.** What about the AUC(0-t) [4, 10] of the same compound?
**A.** 19.6 µM·h

**Q.** And the Cmax [4, 10]?
**A.** 1500 nM

**Q.** What about the Cmax [4, 11] of the same compound?
**A.** 1450 nM

**Q.** What about the Tmax ([4]; human, plasma, oral, 50 mg, Tmax, Study 1 esomeprazole arm, single 50 mg alisertib ECT, absence of esomeprazole, median (minimum, maximum)) of the same compound?
**A.** 4 h

**Q.** And the Tmax ([4]; human, plasma, oral, 50 mg, Tmax, Study 1 rifampin arm, single 50 mg alisertib ECT, absence of rifampin, median (minimum, maximum))?
**A.** 4 h

**Q.** What about the Tmax ([4]; human, plasma, oral, 50 mg, median Tmax, Study 1, both treatment arms, 50 mg alisertib administered alone) of the same compound?
**A.** 3 to 4 h

**Q.** What about the half-life ([4]; human, plasma, oral, 50 mg, t1/2, Study 1 esomeprazole arm, single 50 mg alisertib ECT, absence of esomeprazole) of the same compound?
**A.** ~16 h

**Q.** And the half-life ([4]; human, plasma, oral, 50 mg, t1/2, Study 1 rifampin arm, single 50 mg alisertib ECT, absence of rifampin)?
**A.** ~16 h

**Q.** What about the AUC(0-inf) [4, 12] of the same compound?
**A.** 25.9 µM·h

**Q.** What about the AUC(0-inf) [4, 13] of the same compound?
**A.** 8.65 µM·h

**Q.** What about the AUC(0-t) [4, 12] of the same compound?
**A.** 24.5 µM·h

**Q.** And the AUC(0-t) [4, 13]?
**A.** 9.06 µM·h

**Q.** And the Cmax [4, 12]?
**A.** 1720 nM

**Q.** And the Tmax ([4]; human, plasma, oral, Tmax, Study 1 rifampin arm, single 50 mg alisertib ECT, presence of rifampin 600 mg QD, median (minimum, maximum))?
**A.** ~2 h

**Q.** And the half-life ([4]; human, plasma, oral, t1/2, Study 1 esomeprazole arm, single 50 mg alisertib ECT, presence of esomeprazole 40 mg QD)?
**A.** ~16 h

**Q.** And the half-life ([4]; human, plasma, oral, t1/2, Study 1 rifampin arm, single 50 mg alisertib ECT, presence of rifampin 600 mg QD)?
**A.** ~8 h

**Q.** What about the “leukocytes and neutrophils over the course of the study” value [5] of the same compound?
**A.** decreases were observed

**Q.** And the “vital signs or ECG findings” value [5]?
**A.** no notable trends

**Q.** And the “patients who died during the study” value ([6]; Study 1, none deemed related to study treatment)?
**A.** Four

**Q.** And the “Alopecia, treatment-related” value ([6]; human, in vivo)?
**A.** 17 (31) n (%)

**Q.** And the “Anaemia, treatment-related” value ([6]; human, in vivo)?
**A.** 10 (18) n (%)

**Q.** What about the “Decreased appetite, treatment-related” value ([6]; human, in vivo) of the same compound?
**A.** 8 (15) n (%)

**Q.** And the “Dehydration, treatment-related” value ([6]; human, in vivo)?
**A.** 6 (11) n (%)

**Q.** And the “Diarrhea, treatment-related” value ([6]; human, in vivo)?
**A.** 18 (33) n (%)

**Q.** And the “Fatigue, treatment-related” value ([6]; human, in vivo)?
**A.** 14 (25) n (%)

**Q.** What about the “Leukopenia, treatment-related” value ([6]; human, in vivo) of the same compound?
**A.** 7 (13) n (%)

**Q.** And the “Nausea, treatment-related” value ([6]; human, in vivo)?
**A.** 10 (18) n (%)

**Q.** And the “Neutropenia, treatment-related” value ([6]; human, in vivo)?
**A.** 17 (31) n (%)

**Q.** What about the “Stomatitis, treatment-related” value ([6]; human, in vivo) of the same compound?
**A.** 14 (25) n (%)

**Q.** And the “Thrombocytopenia, treatment-related” value ([6]; human, in vivo)?
**A.** 7 (13) n (%)

**Q.** And the “Vomiting, treatment-related” value ([6]; human, in vivo)?
**A.** 8 (15) n (%)

**Q.** And the “patients with at least 1 adverse event” value ([6]; human, in vivo)?
**A.** 52 (95%) patients

**Q.** What about the “treatment-related serious adverse events nausea and vomiting (each)” value ([6]; human, in vivo) of the same compound?
**A.** 2 patients

**Q.** What about the “leukocytes and neutrophils over the course of the study” value ([6]; in vivo) of the same compound?
**A.** decreases were observed

**Q.** What about the “patients with other serious adverse events considered treatment related” value ([6]; in vivo) of the same compound?
**A.** Five

**Q.** What about the “vital signs or ECG findings” value ([6]; in vivo) of the same compound?
**A.** no notable trends

**Q.** Which AUC0-last [7] does the source give for `COc1cc(Nc2ncc3c(n2)-c2ccc(Cl)cc2C(c2c(F)cccc2OC)=NC3)ccc1C(=O)O[C@@H]1O[C@H](C(=O)O)[C@@H](O)[C@H](O)[C@H]1O` [M1, alisertib acylglurcuronide] here?
**A.** 4962 (164%) nM*h

**Q.** What about the AUC(0-inf) [7] of the same compound?
**A.** 5758 (174%)^d nM*h

**Q.** And the Cmax [7]?
**A.** 287 nM

**Q.** And the Tmax [7]?
**A.** 3.1 (1, 23) h

**Q.** And the t1/2 [7]?
**A.** 23.0 (11.2)^h

**Q.** What about the “mean t1/2” value [8] of the same compound?
**A.** 15 to 18 h

**Q.** And the “median Tmax” value [8]?
**A.** 4 h

**Q.** Which AUC0-last [7] does the source give for `COc1cc(Nc2ncc3c(n2)-c2ccc(Cl)cc2C(c2c(O)cccc2F)=NC3)ccc1C(=O)O` [M2, O-desmethyl alisertib] here?
**A.** 4977 (58%) nM*h

**Q.** What about the AUC(0-inf) [7] of the same compound?
**A.** 4926 (41%)^i nM*h

**Q.** And the Cmax [7]?
**A.** 100 nM

**Q.** And the Tmax [7]?
**A.** 9.4 (3.0, 48) h

**Q.** What about the t1/2 [7] of the same compound?
**A.** 28 (9.2)^i h

**Q.** And the “systemic exposure metabolite/parent ratio following multiple dose itraconazole” value [7]?
**A.** decreased

**Q.** And the “mean t1/2” value [8]?
**A.** 19.1 to 22 h

**Q.** What about the “median Tmax” value [8] of the same compound?
**A.** 10 h

**Q.** What about the “change in mean AUC0-inf in the presence of rifampin” value ([8]; 600 mg) of the same compound?
**A.** increased

**Q.** What about the “change in mean t1/2 in the presence of rifampin” value ([8]; 600 mg) of the same compound?
**A.** decreased

Source: article PMC5869871 (Investigational New Drugs, 2017)
